# Reference: patent US7947679B2 (priority 2002, dated 2011)
# What was measured:
# Botrytis cinerea = details: in vivo
# Plasmopara viticola = details: in vivo
# Phytophthora infestans = format: in vivo; details: 200 ppm, tomato leaf disks, preventive, assessed four days after inoculation
smiles,measurement,setting,value
CC(C)Nc1nc2ncccc2c(Cl)c1-c1c(F)cc(F)cc1F,melting point,,202 °C
"CC(C)Nc1c(-c2c(F)cc(F)cc2F)c(Cl)nc2ncccc12 [3 (1), [2-chloro-3-(2,4,6-trifluorophenyl)-[1,8]naphthyridin-4-yl]-isopropylamine]",control of disease,Botrytis cinerea,greater than 60%
same,melting point,,193 °C
"CC(C)Nc1c(-c2c(F)cc(F)cc2F)c(Cl)nc2ncc(Br)cc12 [3 (111), [6-bromo-2-chloro-3-(2,4,6-trifluorophenyl)-[1,8]naphthyridin-4-yl]-isopropylamine]",control of disease,Plasmopara viticola,greater than 60%
"Fc1cc(F)c(-c2c(Cl)nc3ncccc3c2N2CCOCC2)c(F)c1 [20 (1), 2-chloro-4-morpholin-4-yl-3-(2,4,6-trifluorophenyl)-[1,8]naphthyridine]",control of disease,Phytophthora infestans,greater than 60%
